Patent US20240270801A1, “EPITOPE PEPTIDE OF HUMAN ALPHA-SYNUCLEIN AND PHARMACEUTICAL COMPOSITION INCLUDING SAID PEPTIDE” (Sumitomo Pharma Co., Ltd., priority 2021, published 2024)
No end group written: not given here. KLH = keyhole limpet hemocyanin

What was measured:
human αSyn = assay: Antibody-inducing ability in mice: ELISA antibody titer of immune serum with respect to human αSyn; type: in vivo, mouse
Outline: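 Female balb/c mice, 6 weeks old, immunized i.m. twice 2 weeks apart with peptide conjugates (250 μg/mouse; KLH-DMPVDPDN 25 μg/mouse) plus Alum 50 μg/mouse. Serum taken 2 weeks after second dose. IgG titer measured by ELISA on human αSyn (0.2 μg/well) or aggregated αSyn (15 ng/well), A450; titers expressed as log relative to control conjugate.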

aggregated human αSyn = aggregated human αSyn (Homo sapiens, UniProt P37840); assay: Aggregated human αSyn-neutralizing effect of antibody induced in mice: phosphorylation of human αSyn in SH-SY5Y cells; type: cell-based; design: purchased Stress Marq (StressMarq Biosciences Inc.); conditions: antibody (100 μg/mL) induced in C57BL/6 mice by the vaccine; FIG. 1B, isotype control = 100
Procedure: The aggregated human αSyn-neutralizing effect of the antibody induced in the mice by the AJ-human αSyn peptide conjugate (AJ-p54) produced in Example 1 was evaluated. Physiological saline or the AJ-human αSyn peptide conjugate (250 μg/mouse) was intramuscularly administered to C57BL/6 mice (males, 6 weeks old, CLEA Japan, Inc.) four times at a 2-week interval using CFA (DIFCO) as an adjuvant. Furthermore, KLH-DMPVDPDN (25 μg/mouse) was administered using Alum (InvivoGen, 50 μg/mouse) as an adjuvant. Two weeks after the fourth administration, serum was recovered. After recovering the antibodies comprised in the serum by Protein G HP SpinTrap (Cytiva), the human αSyn- and aggregated human αSyn-neutralizing effect was evaluated by a method described below.
As the human αSyn- and aggregated human αSyn-neutralizing effect, the influence on phosphorylation of human αSyn in SH-SY5Y cells (ATCC) was evaluated. The SH-SY5Y cells were seeded in a 96-well plate at 2×10^4 cells/well and cultured under the conditions of 37° C. and 5% CO2. […] After fixing the cells with a 4% paraformaldehyde/phosphate buffer solution (FUJIFILM Wako Pure Chemical Corporation), phosphorylated human αSyn was stained with a fluorescence-labeled anti-phosphorylated αSyn antibody (Cell Signaling). The amount of phosphorylated human αSyn was evaluated by image analysis using ArrayScan (Thermo Fisher Scientific Inc.). […]

Substance: KLH-C-DMPVDPDN ({KLH}-CDMPVDPDN) [KLH-DMPVDPDN, comparison vaccine, reference compound]
- Induction of the antibody to human αSyn in the mouse serum (in words) (human αSyn; Example 2, balb/c mice): induction of the antibody to human αSyn was also confirmed
- Antibody titer with respect to human αSyn (N = 4 − 6, mean ± standard deviation) (human αSyn; Example 2, balb/c mice, i.m. twice at 2-week interval, Alum, AJ conjugates 250 μg/mouse, KLH-DMPVDPDN 25 μg/mouse, serum 2 weeks after second administration): 5461 ± 2365
- Induction of the antibody to human αSyn (in words) (human αSyn; Example 4, balb/c mice): induced the antibody to human αSyn
- Antibody titer with respect to human αSyn (mean ± standard deviation) (human αSyn; Example 4, balb/c mice, i.m. twice at 2-week interval, Alum, AJ conjugates 250 μg/mouse, KLH-DMPVDPDN 25 μg/mouse): 1792 ± 1536
- Phosphorylation of human αSyn in SH-SY5Y cells to which aggregated human αSyn was added (aggregated human αSyn): inhibited
